Test results published in PubChem BioAssay AID2060604 (Molecular Pharmacology Branch, DTP, NCI, 2025).

System: 379773-124-R-J2-PDC complex spheroids, viability % test/control
Experiment: Anticancer human tumor 379773-124-R-J2-PDC patient-derived endometrial carcinoma cell line growth inhibition [CLK]
Conditions: for IC50: curve of first compound; for viability, T/C: stronger effect = lower value
In short: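 Multi-cell-type spheroids combined patient-derived tumor cells with HUVEC endothelial cells and human mesenchymal stem cells. Paired agents were dosed in half-log steps down from about clinical Cmax, or from 10 microM where Cmax was unknown.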

[1] = second compound 0.0316 µM, first compound 0.00949 µM
[2] = second compound 0.0316 µM, first compound 0.03 µM
[3] = second compound 0.0316 µM, first compound 0.0949 µM
[4] = second compound 0.0316 µM, first compound 0.3 µM
[5] = second compound 0.1 µM, first compound 0.00949 µM
[6] = second compound 0.1 µM, first compound 0.03 µM
[7] = second compound 0.1 µM, first compound 0.0949 µM
[8] = second compound 0.1 µM, first compound 0.3 µM
[9] = second compound 0.316 µM, first compound 0.00949 µM
[10] = second compound 0.316 µM, first compound 0.03 µM
[11] = second compound 0.316 µM, first compound 0.0949 µM
[12] = second compound 0.316 µM, first compound 0.3 µM
[13] = second compound 1 µM, first compound 0.00949 µM
[14] = second compound 1 µM, first compound 0.03 µM
[15] = second compound 1 µM, first compound 0.0949 µM
[16] = second compound 1 µM, first compound 0.3 µM
[17] = second compound 3.16 µM, first compound 0.00949 µM
[18] = second compound 3.16 µM, first compound 0.03 µM
[19] = second compound 3.16 µM, first compound 0.0949 µM
[20] = second compound 3.16 µM, first compound 0.3 µM
[21] = second compound 10 µM, first compound 0.00949 µM
[22] = second compound 10 µM, first compound 0.03 µM
[23] = second compound 10 µM, first compound 0.0949 µM
[24] = second compound 10 µM, first compound 0.3 µM
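Note: compound exposure lasted seven days before the viability readout.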
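Throughout, for viability, T/C: 100% = DMSO vehicle control wells.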

## C=CC(=O)Nc1cc(Nc2nccc(-c3cn(C)c4ccccc34)n2)c(OC)cc1N(C)CCN(C)C + CNC(=O)c1ccc(Nc2nc(OC3CCCC3)c3c(-c4ccc5nc(C)oc5c4)c[nH]c3n2)c(OC)c1
Second compound 0.0316 µM
  IC50: > 300 nM
Second compound 0.1 µM
  IC50: < 0.949 nM
Second compound 0.316 µM
  IC50: < 0.949 nM
Second compound 1 µM
  IC50: < 0.949 nM
Second compound 3.16 µM
  IC50: < 0.949 nM
Second compound 10 µM
  IC50: < 0.949 nM
Second compound 0.0316 µM, first compound 0.000949 µM
  viability, T/C: 82.7%
Second compound 0.0316 µM, first compound 0.003 µM
  viability, T/C: 84.2%
[1]
  viability, T/C: 78.9%
[2]
  viability, T/C: 73%
[3]
  viability, T/C: 77.6%
[4]
  viability, T/C: 58.1%
Second compound 0.1 µM, first compound 0.000949 µM
  viability, T/C: 35.2%
Second compound 0.1 µM, first compound 0.003 µM
  viability, T/C: 37%
[5]
  viability, T/C: 42.6%
[6]
  viability, T/C: 31.2%
[7]
  viability, T/C: 32.5%
[8]
  viability, T/C: 38%
Second compound 0.316 µM, first compound 0.000949 µM
  viability, T/C: 44.7%
Second compound 0.316 µM, first compound 0.003 µM
  viability, T/C: 39.9%
[9]
  viability, T/C: 32%
[10]
  viability, T/C: 34.5%
[11]
  viability, T/C: 31.3%
[12]
  viability, T/C: 26.2%
Second compound 1 µM, first compound 0.000949 µM
  viability, T/C: 45.4%
Second compound 1 µM, first compound 0.003 µM
  viability, T/C: 39%
[13]
  viability, T/C: 31.2%
[14]
  viability, T/C: 28.8%
[15]
  viability, T/C: 26.6%
[16]
  viability, T/C: 30.4%
Second compound 3.16 µM, first compound 0.000949 µM
  viability, T/C: 30.1%
Second compound 3.16 µM, first compound 0.003 µM
  viability, T/C: 37.5%
[17]
  viability, T/C: 32.5%
[18]
  viability, T/C: 34.3%
[19]
  viability, T/C: 25.7%
[20]
  viability, T/C: 28.2%
Second compound 10 µM, first compound 0.000949 µM
  viability, T/C: 30.9%
Second compound 10 µM, first compound 0.003 µM
  viability, T/C: 30.1%
[21]
  viability, T/C: 27.1%
[22]
  viability, T/C: 35.1%
[23]
  viability, T/C: 28%
[24]
  viability, T/C: 25.9%

## NC(=O)C(=Cn1cnc(-c2cc(C(F)(F)F)cc(C(F)(F)F)c2)n1)c1cncnc1 + CNC(=O)c1ccc(Nc2nc(OC3CCCC3)c3c(-c4ccc5nc(C)oc5c4)c[nH]c3n2)c(OC)c1
Second compound 0.0316 µM
  IC50: 38.6 nM
Second compound 0.1 µM
  IC50: < 9.49 nM
Second compound 0.316 µM
  IC50: < 9.49 nM
Second compound 1 µM
  IC50: < 9.49 nM
Second compound 3.16 µM
  IC50: < 9.49 nM
Second compound 10 µM
  IC50: < 9.49 nM
[1]
  viability, T/C: 72.8%
[2]
  viability, T/C: 57.6%
[3]
  viability, T/C: 25.4%
[4]
  viability, T/C: 12.7%
Second compound 0.0316 µM, first compound 0.949 µM
  viability, T/C: 7.15%
Second compound 0.0316 µM, first compound 3 µM
  viability, T/C: 2.1%
[5]
  viability, T/C: 32.3%
[6]
  viability, T/C: 29.7%
[7]
  viability, T/C: 21.4%
[8]
  viability, T/C: 12.4%
Second compound 0.1 µM, first compound 0.949 µM
  viability, T/C: 6.65%
Second compound 0.1 µM, first compound 3 µM
  viability, T/C: 2.59%
[9]
  viability, T/C: 36.7%
[10]
  viability, T/C: 32.8%
[11]
  viability, T/C: 23.8%
[12]
  viability, T/C: 12%
Second compound 0.316 µM, first compound 0.949 µM
  viability, T/C: 5.08%
Second compound 0.316 µM, first compound 3 µM
  viability, T/C: 1.7%
[13]
  viability, T/C: 31.9%
[14]
  viability, T/C: 32.6%
[15]
  viability, T/C: 20.9%
[16]
  viability, T/C: 10.4%
Second compound 1 µM, first compound 0.949 µM
  viability, T/C: 3.69%
Second compound 1 µM, first compound 3 µM
  viability, T/C: 0.49%
[17]
  viability, T/C: 30.1%
[18]
  viability, T/C: 34.9%
[19]
  viability, T/C: 18.2%
[20]
  viability, T/C: 7.24%
Second compound 3.16 µM, first compound 0.949 µM
  viability, T/C: 2.43%
Second compound 3.16 µM, first compound 3 µM
  viability, T/C: 0.24%
[21]
  viability, T/C: 37.7%
[22]
  viability, T/C: 26.8%
[23]
  viability, T/C: 14.3%
[24]
  viability, T/C: 7.07%
Second compound 10 µM, first compound 0.949 µM
  viability, T/C: 2.12%
Second compound 10 µM, first compound 3 µM
  viability, T/C: 0.82%

## Nc1ccccc1NC(=O)c1ccc(CNC(=O)OCc2cccnc2)cc1 + CNC(=O)c1ccc(Nc2nc(OC3CCCC3)c3c(-c4ccc5nc(C)oc5c4)c[nH]c3n2)c(OC)c1
Second compound 0.0316 µM
  IC50: 1820 nM
Second compound 0.1 µM
  IC50: < 31.6 nM
Second compound 0.316 µM
  IC50: < 31.6 nM
Second compound 1 µM
  IC50: < 31.6 nM
Second compound 3.16 µM
  IC50: < 31.6 nM
Second compound 10 µM
  IC50: < 31.6 nM
Second compound 0.0316 µM, first compound 0.0316 µM
  viability, T/C: 87.7%
Second compound 0.0316 µM, first compound 0.1 µM
  viability, T/C: 81.9%
Second compound 0.0316 µM, first compound 0.316 µM
  viability, T/C: 95.7%
Second compound 0.0316 µM, first compound 1 µM
  viability, T/C: 70.6%
Second compound 0.0316 µM, first compound 3.16 µM
  viability, T/C: 29.8%
Second compound 0.0316 µM, first compound 10 µM
  viability, T/C: 7.39%
Second compound 0.1 µM, first compound 0.0316 µM
  viability, T/C: 32.2%
Second compound 0.1 µM, first compound 0.1 µM
  viability, T/C: 40.1%
Second compound 0.1 µM, first compound 0.316 µM
  viability, T/C: 36.5%
Second compound 0.1 µM, first compound 1 µM
  viability, T/C: 27.8%
Second compound 0.1 µM, first compound 3.16 µM
  viability, T/C: 11.5%
Second compound 0.1 µM, first compound 10 µM
  viability, T/C: 5.65%
Second compound 0.316 µM, first compound 0.0316 µM
  viability, T/C: 44.5%
Second compound 0.316 µM, first compound 0.1 µM
  viability, T/C: 40.2%
Second compound 0.316 µM, first compound 0.316 µM
  viability, T/C: 27.7%
Second compound 0.316 µM, first compound 1 µM
  viability, T/C: 25.4%
Second compound 0.316 µM, first compound 3.16 µM
  viability, T/C: 15.3%
Second compound 0.316 µM, first compound 10 µM
  viability, T/C: 4.66%
Second compound 1 µM, first compound 0.0316 µM
  viability, T/C: 39.1%
Second compound 1 µM, first compound 0.1 µM
  viability, T/C: 29.2%
Second compound 1 µM, first compound 0.316 µM
  viability, T/C: 28.4%
Second compound 1 µM, first compound 1 µM
  viability, T/C: 20.4%
Second compound 1 µM, first compound 3.16 µM
  viability, T/C: 14.3%
Second compound 1 µM, first compound 10 µM
  viability, T/C: 3.91%
Second compound 3.16 µM, first compound 0.0316 µM
  viability, T/C: 31.8%
Second compound 3.16 µM, first compound 0.1 µM
  viability, T/C: 30.1%
Second compound 3.16 µM, first compound 0.316 µM
  viability, T/C: 25.1%
Second compound 3.16 µM, first compound 1 µM
  viability, T/C: 21.4%
Second compound 3.16 µM, first compound 3.16 µM
  viability, T/C: 12.9%
Second compound 3.16 µM, first compound 10 µM
  viability, T/C: 3.52%
Second compound 10 µM, first compound 0.0316 µM
  viability, T/C: 38.7%
Second compound 10 µM, first compound 0.1 µM
  viability, T/C: 30.2%
Second compound 10 µM, first compound 0.316 µM
  viability, T/C: 25.2%
Second compound 10 µM, first compound 1 µM
  viability, T/C: 17.3%
Second compound 10 µM, first compound 3.16 µM
  viability, T/C: 12.2%
Second compound 10 µM, first compound 10 µM
  viability, T/C: 2.97%
